The structures appear in SMILES notation. Structures can show the parent of a compound that is named as a salt.

The target of this experiment is AKT1 (Homo sapiens (Human), UniProt P31749). As to the kind of experiment: Inactive Akt Alpha Screen Assay. The settings on record: non *labeled: Akt Alpha Screen assay; read-out: AKT1 biochemical assay, IC50. As for the experimental part: AKT1 activity was assayed using the GSK3-derived biotinylated peptide substrate, crosstide (biotin-[…]), and AlphaScreen™ (Amplified Luminescent Proximity Homogeneous Assay) technology. AKT1 activation was achieved by the addition of the activating kinases PDK1 and MAPKAPK2, lipid vesicles, and ATP. The extent of peptide phosphorylation was determined using a phospho-AKT substrate antibody and acceptor beads conjugated to Protein A and donor beads conjugated to streptavidin that bind to the biotin on the peptide. Excitation of the donor beads converted ambient oxygen to excited singlet oxygen which, when in close proximity to acceptor beads, reacted with acceptor beads resulting in signal amplification. […] The plates were incubated for 30 minutes at room temperature, and then stopped in the dark by the addition of 10 μL stop/detection mixture prepared in assay buffer containing EDTA, AlphaScreen™ Streptavidin Donor and Protein A Acceptor beads, and phospho-AKT substrate antibody for final concentrations of 10 mM EDTA, 500 ng/well of both AlphaScreen™ Streptavidin Donor beads and Protein A Acceptor beads, and phospho-AKT substrate antibody at a final dilution of 1:350. Assay plates were incubated for 90 minutes at room temperature in the dark, and the plates were read on a Perkin Elmer Envision Multilabel plate reader (excitation wavelength: […], emission wavelength: 570 nm). […] Envision Instrument Settings: • Instrument: Perkin Elmer Envision • Plate: 96 well • Program Name: • Excitation: Ex Top • Mirror: General Dual—Slot 2 • Excitation Filter: CFP430 Ex.
Sequence of AKT1 (P31749 whole entry): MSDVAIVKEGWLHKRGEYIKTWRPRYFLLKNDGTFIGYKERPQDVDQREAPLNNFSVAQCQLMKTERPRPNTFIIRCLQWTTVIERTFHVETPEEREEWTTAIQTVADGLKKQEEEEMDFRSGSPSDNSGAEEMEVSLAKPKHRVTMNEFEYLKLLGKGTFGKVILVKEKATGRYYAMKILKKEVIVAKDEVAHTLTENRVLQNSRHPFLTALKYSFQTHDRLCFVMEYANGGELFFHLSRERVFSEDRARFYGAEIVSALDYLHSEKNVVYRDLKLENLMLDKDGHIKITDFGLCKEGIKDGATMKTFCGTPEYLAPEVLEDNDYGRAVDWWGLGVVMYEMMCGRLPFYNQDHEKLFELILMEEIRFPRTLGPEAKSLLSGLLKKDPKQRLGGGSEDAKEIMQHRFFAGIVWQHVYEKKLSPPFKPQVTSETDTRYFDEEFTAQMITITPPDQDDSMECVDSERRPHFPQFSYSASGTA
As for `OCc1ccc(-c2nnc3n2-c2cccnc2Nc2ccc(Br)cc2-3)cc1` [Example 225, (4-(12-bromo-9H-benzo[f]pyrido[2,3-b][1,2,4]triazolo[4,3-d][1,4]diazepin-3-yl)phenyl)methanol], the IC50 (commonly the concentration that gives 50% inhibition) amounted to 5200 nM.

`COc1cccc(CNC(=O)NC2CCN(Cc3ccc(-c4nnc5n4-c4cccnc4Nc4ccccc4-5)cc3)CC2)c1` [Example 171, 1-(1-(4-(9H-benzo[f]pyrido[2,3-b][1,2,4]triazolo[4,3-d][1,4]diazepin-3-yl)benzyl)piperidin-4-yl)-3-(3-methoxybenzyl)urea]: the concentration for half-maximal inhibition (IC50) came out at 780 nM.

As for `O=C(Nc1ccc(-c2nnc3n2-c2cccnc2Nc2ccccc2-3)cc1)c1cc2ccccc2s1` [Example 42, N-(4-(9H-benzo[f]pyrido[2,3-b][1,2,4]triazolo[4,3-d][1,4]diazepin-3-yl)phenyl)benzo[b]thiophene-2-carboxamide], the IC50 was 360 nM.

As for `O=C(Nc1cccc(Cl)c1)NC1CCN(Cc2ccc(-c3nnc4n3-c3cccnc3Nc3ccccc3-4)cc2)CC1` [Example 176, 1-(1-(4-(9H-benzo[f]pyrido[2,3-b][1,2,4]triazolo[4,3-d][1,4]diazepin-3-yl)benzyl)piperidin-4-yl)-3-(3-chlorophenyl)urea], the 50% inhibitory concentration (IC50) was determined as 1200 nM.

Consider `CCN(Cc1ccncc1)Cc1ccc(-c2nnc3n2-c2cccnc2Nc2ccccc2-3)cc1` [Example 70, N-(4-(9H-benzo[f]pyrido[2,3-b][1,2,4]triazolo[4,3-d][1,4]diazepin-3-yl)benzyl)-N-(pyridin-4-ylmethyl)ethanamine], for which the IC50 is 2100 nM.

Turning to `O=C(c1ccc(F)cc1)N1CCN(Cc2ccc(-c3nnc4n3-c3cccnc3Nc3ccccc3-4)cc2)CC1` [Example 132, (4-(4-(9H-benzo[f]pyrido[2,3-b][1,2,4]triazolo[4,3-d][1,4]diazepin-3-yl)benzyl)piperazin-1-yl)(4-fluorophenyl)methanone], the IC50 came out at 3200 nM.

Take `CC(C)(C)c1ccc(-c2nnc3n2-c2cccnc2Nc2ccccc2-3)cc1` [Example 7, 3-(4-(tert-butyl)phenyl)-9H-benzo[f]pyrido[2,3-b][1,2,4]triazolo[4,3-d][1,4]diazepine]: the IC50 turned out to be 4700 nM.

Consider `Cc1cccc(NC(=O)NC2CCN(Cc3ccc(-c4nnc5n4-c4cccnc4Nc4ccccc4-5)cc3)CC2)c1` [Example 170, 1-(1-(4-(9H-benzo[f]pyrido[2,3-b][1,2,4]triazolo[4,3-d][1,4]diazepin-3-yl)benzyl)piperidin-4-yl)-3-(m-tolyl)urea], for which the IC50 was 660 nM.

On to `Nc1ccc(-c2nnc3n2-c2cccnc2Nc2ccccc2-3)cn1` [Example 5, hydrochloride], for which the half-inhibitory concentration (IC50) stood at 2100 nM.

Regarding `COc1ccc(NC(=O)NC2CCN(Cc3ccc(-c4nnc5n4-c4cccnc4Nc4ccccc4-5)cc3)CC2)c(C)c1` [Example 184, 1-(1-(4-(9H-benzo[f]pyrido[2,3-b][1,2,4]triazolo[4,3-d][1,4]diazepin-3-yl)benzyl)piperidin-4-yl)-3-(4-methoxy-2-methylphenyl)urea], the 50% inhibitory concentration (IC50) is 840 nM.

As for `COc1ccccc1C(=O)N1CCN(Cc2ccc(-c3nnc4n3-c3cccnc3Nc3ccccc3-4)cc2)CC1` [Example 134, (4-(4-(9H-benzo[f]pyrido[2,3-b][1,2,4]triazolo[4,3-d][1,4]diazepin-3-yl)benzyl)piperazin-1-yl)(2-methoxyphenyl)methanone], the IC50 was 430 nM.

For the compound `CN1c2ccccc2-c2nnc(-c3ccc4ccccc4c3)n2-c2ccccc21` [Example 14, hydrochloride], the IC50 turned out to be 67000 nM.

On to `O=C(c1ccccc1F)N1CCN(Cc2ccc(-c3nnc4n3-c3cccnc3Nc3ccccc3-4)cc2)CC1` [Example 141, (4-(4-(9H-benzo[f]pyrido[2,3-b][1,2,4]triazolo[4,3-d][1,4]diazepin-3-yl)benzyl)piperazin-1-yl)(2-fluorophenyl)methanone], for which the IC50 was 450 nM.

With `c1ccc2c(c1)Nc1ncccc1-n1c(-c3ccc(CN4CCC(c5nnc(-c6ccncc6)[nH]5)CC4)cc3)nnc1-2` [Example 131, 3-(4-((4-(5-(pyridin-4-yl)-4H-1,2,4-triazol-3-yl)piperidin-1-yl)methyl)phenyl)-9H-benzo[f]pyrido[2,3-b][1,2,4]triazolo[4,3-d][1,4]diazepine], the IC50 amounted to 170 nM.

With `Fc1ccc(-c2nnc3n2-c2cccnc2Nc2ccccc2-3)c(F)c1` [Example 17], the concentration for half-maximal inhibition (IC50) is 7200 nM.

Regarding `CC(C)(C)CC(=O)Nc1ccc(-c2nnc3n2-c2cccnc2Nc2ccccc2-3)cc1` [Example 36, N-(4-(9H-benzo[f]pyrido[2,3-b][1,2,4]triazolo[4,3-d][1,4]diazepin-3-yl)phenyl)-3,3-dimethylbutanamide], the IC50 was 340 nM.

For the compound `O=C(Nc1ccccc1F)NC1CCN(Cc2ccc(-c3nnc4n3-c3cccnc3Nc3ccccc3-4)cc2)CC1` [Example 167, 1-(1-(4-(9H-benzo[f]pyrido[2,3-b][1,2,4]triazolo[4,3-d][1,4]diazepin-3-yl)benzyl)piperidin-4-yl)-3-(2-fluorophenyl)urea], the half-inhibitory concentration (IC50) turned out to be 440 nM.

As for `O=C(Nc1ccc(-c2nnc3n2-c2cccnc2Nc2ccccc2-3)cc1)c1ccncc1` [Example 58, N-(4-(9H-benzo[f]pyrido[2,3-b][1,2,4]triazolo[4,3-d][1,4]diazepin-3-yl)phenyl)isonicotinamide], the IC50 stood at 350 nM.

`O=C(Nc1ccc(-c2nnc3n2-c2cccnc2Nc2ccccc2-3)cc1)c1ccccc1F` [Example 51, N-(4-(9H-benzo[f]pyrido[2,3-b][1,2,4]triazolo[4,3-d][1,4]diazepin-3-yl)phenyl)-2-fluorobenzamide]: the 50% inhibitory concentration (IC50) was 110 nM.

For `Nc1ccc(-c2nnc3n2-c2ccccc2Nc2ccccc2-3)cc1` [Example 22, 4-(9H-dibenzo[b,f][1,2,4]triazolo[4,3-d][1,4]diazepin-3-yl)aniline], the half-maximal inhibitory concentration (IC50) came to 1800 nM.

Regarding `Cc1ccc2c(c1)-c1nnc(-c3ccc(C4(N)CCC4)cc3)n1-c1cccnc1N2` [Example 216, 1-(4-(12-methyl-9H-benzo[f]pyrido[2,3-b][1,2,4]triazolo[4,3-d][1,4]diazepin-3-yl)phenyl)cyclobutanamine], the IC50 worked out at 960 nM.

Consider `Nc1cccc(-c2nnc3n2-c2cccnc2Nc2ccccc2-3)c1` [Example 18, hydrochloride], for which the 50% inhibitory concentration (IC50) worked out at 8100 nM.

For `COc1ccc(C(=O)N2CCN(Cc3ccc(-c4nnc5n4-c4cccnc4Nc4ccccc4-5)cc3)CC2)cc1` [Example 137, (4-(4-(9H-benzo[f]pyrido[2,3-b][1,2,4]triazolo[4,3-d][1,4]diazepin-3-yl)benzyl)piperazin-1-yl)(4-methoxyphenyl)methanone], the IC50 amounted to 1400 nM.

As for `c1ccc(-c2nnc(C3CCN(Cc4ccc(-c5nnc6n5-c5ccccc5Nc5ccccc5-6)cc4)CC3)[nH]2)nc1` [Example 129, 3-(4-((4-(5-(pyridin-2-yl)-4H-1,2,4-triazol-3-yl)piperidin-1-yl)methyl)phenyl)-9H-dibenzo[b,f][1,2,4]triazolo[4,3-d][1,4]diazepine], the IC50 turned out to be 250 nM.

Regarding `COc1cccc(C(=O)N2CCN(Cc3ccc(-c4nnc5n4-c4cccnc4Nc4ccccc4-5)cc3)CC2)c1` [Example 138, (4-(4-(9H-benzo[f]pyrido[2,3-b][1,2,4]triazolo[4,3-d][1,4]diazepin-3-yl)benzyl)piperazin-1-yl)(3-methoxyphenyl)methanone], the IC50 came out at 2200 nM.

In the case of `NCc1ccc(-c2nnc3n2-c2cccnc2Nc2ccc(Br)cc2-3)cc1` [Example 227, (4-(12-bromo-9H-benzo[f]pyrido[2,3-b][1,2,4]triazolo[4,3-d][1,4]diazepin-3-yl)phenyl)methanamine], the 50% inhibitory concentration (IC50) was 6100 nM.

With `c1ccc2c(c1)Nc1ncccc1-n1c(-c3ccc(CN4CCOCC4)cc3)nnc1-2` [Example 84, 4-(4-(9H-benzo[f]pyrido[2,3-b][1,2,4]triazolo[4,3-d][1,4]diazepin-3-yl)benzyl)morpholine], the IC50 came to 1600 nM.

`O=C(NCc1ccc(-c2nnc3n2-c2cccnc2Nc2ccccc2-3)cc1)Nc1ccc(F)cc1` [Example 124, 1-(4-(9H-benzo[f]pyrido[2,3-b][1,2,4]triazolo[4,3-d][1,4]diazepin-3-yl)benzyl)-3-(4-fluorophenyl)urea]: the 50% inhibitory concentration (IC50) was found to be 1200 nM.

Consider `Cc1noc(C2CCCN(Cc3ccc(-c4nnc5n4-c4cccnc4Nc4ccccc4-5)cc3)C2)n1` (stereo not shown) [Example 190, 5-(1-(4-(9H-benzo[f]pyrido[2,3-b][1,2,4]triazolo[4,3-d][1,4]diazepin-3-yl)benzyl)piperidin-3-yl)-3-methyl-1,2,4-oxadiazole], for which the IC50 was 410 nM.

For `O=C(Nc1ccc(F)cc1)NC1CCN(Cc2ccc(-c3nnc4n3-c3cccnc3Nc3ccccc3-4)cc2)CC1` [Example 165, 1-(1-(4-(9H-benzo[f]pyrido[2,3-b][1,2,4]triazolo[4,3-d][1,4]diazepin-3-yl)benzyl)piperidin-4-yl)-3-(4-fluorophenyl)urea], the IC50 was 330 nM.

For `COc1cccc(S(=O)(=O)NC2CCN(Cc3ccc(-c4nnc5n4-c4cccnc4Nc4ccccc4-5)cc3)CC2)c1` [Example 150, N-(1-(4-(9H-benzo[f]pyrido[2,3-b][1,2,4]triazolo[4,3-d][1,4]diazepin-3-yl)benzyl)piperidin-4-yl)-3-methoxybenzenesulfonamide], the IC50 was 3000 nM.

For the origin of these results see US8541407B2 (ArQule, Inc., priority 2010, dated 2013).
